According to paper PMC10746189, “Campylobacter jejuni uses energy taxis and a dehydrogenase enzyme for L-fucose chemotaxis” (mBio, 2023):

Target: T1, FucX (Campylobacter jejuni, UniProt Q0PB28)
T1 construct: gene Cj0485; His-tagged FucX from pET30a(+)-fucX, expressed in E. coli BL21, Ni-NTA purified, desalted
Test: dehydrogenase assay, NADPH absorbance at […] nm
Format: biochemical
Conditions: 5 nM protein; 1 mM L-fucose; 100 µM NADP+; 1 mM MgCl2; 50 mM Tris-HCl pH 7.5; room temperature

T1 sequence (Q0PB28 entry or part of it): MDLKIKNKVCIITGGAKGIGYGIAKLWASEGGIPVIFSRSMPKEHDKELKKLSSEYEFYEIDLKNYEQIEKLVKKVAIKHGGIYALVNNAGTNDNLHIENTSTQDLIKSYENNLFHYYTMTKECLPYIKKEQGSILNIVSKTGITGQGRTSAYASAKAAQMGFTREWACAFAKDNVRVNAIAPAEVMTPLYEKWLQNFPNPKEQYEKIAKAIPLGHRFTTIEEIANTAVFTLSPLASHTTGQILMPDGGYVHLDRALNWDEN

C[C@@H]1OC(O)[C@@H](O)[C@H](O)[C@@H]1O (stereo partly drawn) [L-fucose]
dehydrogenase assay, NADPH absorbance at 340 nm: L-Fucose dehydrogenase activity of indicated FucX pure proteins: (+), with L-fucose; (−), no L-fucose.
